In ChEMBL document CHEMBL1201862, “PubChem BioAssay data set” (2004):
The source made the active and inactive calls.

What was measured:
[1] = biological target: Voltage-gated inwardly rectifying potassium channel KCNH2 (Homo sapiens, UniProt Q12809); details: Potency;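 note: confirmatory quantitative high-throughput screen measuring inhibition of hERG channel activity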
[2] = NIH-3T3 fibroblast cytotoxicity, dose response, cytotoxicity control, cell-based, fluorescence, Alamar Blue, secondary assay (AID 2327); assay type: functional;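 note: NIH-3T3 mouse fibroblasts cultured with fluconazole at 8 µg/mL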
[3] = C. albicans growth with fluconazole, confirmation, fluorescence, retest (AID 2467); assay type: functional, cell-based
[4] = biological target: T1, Short transient receptor potential channel 4 (Mus musculus, UniProt Q9QUQ5); assay: mouse TRPC4 channel activators, dose response, cell-based, HEK293 TRPC4/mu-opioid, Fluo-4 calcium (AID 434937); assay type: functional
T1 sequence (Q9QUQ5 whole entry): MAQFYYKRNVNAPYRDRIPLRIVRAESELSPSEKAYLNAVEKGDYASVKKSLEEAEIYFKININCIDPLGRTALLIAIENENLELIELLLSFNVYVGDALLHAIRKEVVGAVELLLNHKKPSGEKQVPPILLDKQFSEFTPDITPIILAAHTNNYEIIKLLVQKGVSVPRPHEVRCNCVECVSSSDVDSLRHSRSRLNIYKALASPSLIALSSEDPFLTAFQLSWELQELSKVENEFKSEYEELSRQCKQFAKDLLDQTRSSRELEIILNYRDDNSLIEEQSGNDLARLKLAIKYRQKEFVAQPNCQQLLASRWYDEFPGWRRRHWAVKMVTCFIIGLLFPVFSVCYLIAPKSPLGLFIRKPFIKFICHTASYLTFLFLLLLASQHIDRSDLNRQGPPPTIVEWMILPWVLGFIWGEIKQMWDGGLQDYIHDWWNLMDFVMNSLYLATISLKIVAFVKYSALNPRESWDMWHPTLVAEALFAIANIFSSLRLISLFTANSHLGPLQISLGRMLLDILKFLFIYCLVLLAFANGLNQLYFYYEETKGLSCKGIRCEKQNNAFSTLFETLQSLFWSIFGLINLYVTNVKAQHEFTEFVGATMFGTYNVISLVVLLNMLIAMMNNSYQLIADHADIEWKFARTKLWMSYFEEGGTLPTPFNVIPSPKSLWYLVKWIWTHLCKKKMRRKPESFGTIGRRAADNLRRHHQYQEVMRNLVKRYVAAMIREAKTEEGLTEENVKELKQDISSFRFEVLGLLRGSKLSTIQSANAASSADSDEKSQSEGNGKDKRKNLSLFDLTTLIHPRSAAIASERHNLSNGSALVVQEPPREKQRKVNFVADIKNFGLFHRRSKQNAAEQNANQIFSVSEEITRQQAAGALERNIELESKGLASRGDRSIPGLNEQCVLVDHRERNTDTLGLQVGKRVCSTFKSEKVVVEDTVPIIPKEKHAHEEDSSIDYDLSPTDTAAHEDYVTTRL

Vero [5] = assay: cells; assay type: functional, cell-based; details: Chlorocebus sabaeus
Vero [6] = assay: cells; assay type: functional; details: Chlorocebus sabaeus
[7] = insulin promoter down-regulators in MIN6 cells, imaging, high-content screening, mouse beta cells (AID 1628); assay type: functional
[8] = cytotoxicity in MIN6 insulinoma cells, dose response, cytotoxicity control, cell-based, mouse insulinoma (AID 2122); assay type: functional;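 note: confirmatory high-throughput counterscreen run to flag cytotoxic compounds; mouse MIN-6 beta cells carrying an insulin promoter eGFP reporter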
Cytochrome P450 1A2 [9] = biological target: T2, Cytochrome P450 1A2 (Homo sapiens, UniProt P05177);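 note: PubChem cytochrome P450 panel assay, CYP1A2 panel member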
T2 sequence (P05177 whole entry): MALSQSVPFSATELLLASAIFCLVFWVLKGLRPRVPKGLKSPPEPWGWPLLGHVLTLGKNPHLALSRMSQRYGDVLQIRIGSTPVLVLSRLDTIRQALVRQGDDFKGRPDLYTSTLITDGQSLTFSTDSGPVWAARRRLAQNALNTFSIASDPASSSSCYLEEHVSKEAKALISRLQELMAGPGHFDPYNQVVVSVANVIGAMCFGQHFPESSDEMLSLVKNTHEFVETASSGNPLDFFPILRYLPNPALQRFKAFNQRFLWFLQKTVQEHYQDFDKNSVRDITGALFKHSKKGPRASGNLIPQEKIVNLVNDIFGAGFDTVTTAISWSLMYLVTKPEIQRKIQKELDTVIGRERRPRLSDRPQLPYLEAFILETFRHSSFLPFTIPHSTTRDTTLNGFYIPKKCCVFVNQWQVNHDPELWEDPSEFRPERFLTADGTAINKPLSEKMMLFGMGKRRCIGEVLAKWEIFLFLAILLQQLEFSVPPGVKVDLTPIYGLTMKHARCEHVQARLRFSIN

Cytochrome P450 1A2 [10] = biological target: T2, Cytochrome P450 1A2; remark: listed apart in the source
Cytochrome P450 2C9 = Cytochrome P450 2C9 (Homo sapiens, UniProt P11712)
Cytochrome P450 2C9, sequence (P11712 whole entry): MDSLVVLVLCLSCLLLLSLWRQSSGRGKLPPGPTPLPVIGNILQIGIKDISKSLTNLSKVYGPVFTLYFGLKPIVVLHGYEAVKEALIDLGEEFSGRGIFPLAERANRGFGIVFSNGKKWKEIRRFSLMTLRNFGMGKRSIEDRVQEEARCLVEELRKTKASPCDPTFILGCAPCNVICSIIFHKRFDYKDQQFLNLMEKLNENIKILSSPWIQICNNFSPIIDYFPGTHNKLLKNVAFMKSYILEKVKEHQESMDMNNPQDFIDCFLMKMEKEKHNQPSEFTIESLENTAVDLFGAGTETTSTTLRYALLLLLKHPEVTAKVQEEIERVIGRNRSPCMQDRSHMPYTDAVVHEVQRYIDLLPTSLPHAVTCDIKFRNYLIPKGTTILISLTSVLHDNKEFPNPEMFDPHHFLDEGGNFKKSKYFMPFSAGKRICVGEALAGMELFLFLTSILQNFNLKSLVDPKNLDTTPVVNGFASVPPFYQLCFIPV

Cytochrome P450 3A4 = Cytochrome P450 3A4 (Homo sapiens, UniProt P08684);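 note: CYP3A4 tested as one member of a cytochrome P450 panel screen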
Cytochrome P450 3A4, sequence (P08684 whole entry): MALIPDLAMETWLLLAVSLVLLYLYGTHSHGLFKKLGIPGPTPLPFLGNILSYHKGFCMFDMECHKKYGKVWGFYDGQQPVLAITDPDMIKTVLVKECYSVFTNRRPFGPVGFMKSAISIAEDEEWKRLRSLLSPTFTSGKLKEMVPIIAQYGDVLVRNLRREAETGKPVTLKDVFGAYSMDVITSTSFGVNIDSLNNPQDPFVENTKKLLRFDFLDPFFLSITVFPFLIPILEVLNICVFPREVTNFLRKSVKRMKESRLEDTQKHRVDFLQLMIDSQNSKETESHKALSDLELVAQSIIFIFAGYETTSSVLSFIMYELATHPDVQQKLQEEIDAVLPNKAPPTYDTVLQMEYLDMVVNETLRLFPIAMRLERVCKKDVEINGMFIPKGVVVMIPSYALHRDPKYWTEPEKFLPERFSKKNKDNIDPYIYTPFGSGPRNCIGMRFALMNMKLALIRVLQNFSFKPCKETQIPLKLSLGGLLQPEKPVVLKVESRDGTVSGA

[11] = Luminescence Cell-Based Dose Retest to Confirm Inhibitors of Cancer Stem Cells. [Related pubchem assays (depositor defined):AID2717, AID2721]; assay type: functional; details: Homo sapiens
CAAX prenyl protease 2 [12] = biological target: T3, CAAX prenyl protease 2 (Saccharomyces cerevisiae S288c, UniProt Q03530); assay type: biochemical
T3 sequence (Q03530 whole entry): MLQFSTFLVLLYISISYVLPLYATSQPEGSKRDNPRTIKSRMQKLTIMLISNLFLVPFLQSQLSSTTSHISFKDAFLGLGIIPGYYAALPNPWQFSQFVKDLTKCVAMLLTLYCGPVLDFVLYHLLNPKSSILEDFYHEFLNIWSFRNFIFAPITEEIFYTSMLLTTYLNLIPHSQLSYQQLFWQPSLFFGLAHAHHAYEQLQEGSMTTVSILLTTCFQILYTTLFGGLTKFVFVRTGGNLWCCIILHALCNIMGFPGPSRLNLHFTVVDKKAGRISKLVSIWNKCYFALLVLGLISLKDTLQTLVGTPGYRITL

[13] = cytotoxicity in HMLE control line with eGFP shRNA, dose response, counter-screen for HMLE_sh_ECad selective toxicity project, cell-based, HMLE_sh_eGFP, luminescence (AID 463074); assay type: functional, Homo sapiens;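 note: HMLE human mammary epithelial cells expressing control shRNA against eGFP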
[14] = mammalian cell cytotoxicity, dose response, cytotoxicity control, plate reader, cherry-pick samples (AID 504397); assay type: functional, cell-based
CAAX prenyl protease 2 [15] = biological target: CAAX prenyl protease 2 (Homo sapiens, UniProt Q9Y256); assay: human Rce1 protease inhibitors, dose response, biochemical, yeast membranes, quenched-peptide fluorescence, cherry-pick (AID 588849)
CAAX prenyl protease 2 (Homo sapiens, UniProt Q9Y256), sequence (Q9Y256 whole entry): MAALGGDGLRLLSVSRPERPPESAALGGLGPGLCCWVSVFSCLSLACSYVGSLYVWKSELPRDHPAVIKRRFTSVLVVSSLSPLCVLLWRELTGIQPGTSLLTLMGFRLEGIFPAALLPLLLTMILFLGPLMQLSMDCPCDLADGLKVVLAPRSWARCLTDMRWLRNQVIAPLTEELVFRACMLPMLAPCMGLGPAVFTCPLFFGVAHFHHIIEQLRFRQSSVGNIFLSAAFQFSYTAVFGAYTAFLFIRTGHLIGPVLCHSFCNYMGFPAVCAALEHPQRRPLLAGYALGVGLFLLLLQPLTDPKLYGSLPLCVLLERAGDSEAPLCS

[16] = biological target: Delta-type opioid receptor (Homo sapiens, UniProt P41143); assay: Counterscreen for agonists of heterodimerization of the mu 1 (OPRM1) and delta 1 (OPRD1) opioid receptors: Luminescence-based cell-based high throughput dose response assay to identify agonists of OPRD1 homodimerization. [Related pubchem assays (depositor defined):AID504326, AID504355, AID504692, AID504904, AID504905]; assay type: functional
Delta-type opioid receptor, sequence (P41143 whole entry): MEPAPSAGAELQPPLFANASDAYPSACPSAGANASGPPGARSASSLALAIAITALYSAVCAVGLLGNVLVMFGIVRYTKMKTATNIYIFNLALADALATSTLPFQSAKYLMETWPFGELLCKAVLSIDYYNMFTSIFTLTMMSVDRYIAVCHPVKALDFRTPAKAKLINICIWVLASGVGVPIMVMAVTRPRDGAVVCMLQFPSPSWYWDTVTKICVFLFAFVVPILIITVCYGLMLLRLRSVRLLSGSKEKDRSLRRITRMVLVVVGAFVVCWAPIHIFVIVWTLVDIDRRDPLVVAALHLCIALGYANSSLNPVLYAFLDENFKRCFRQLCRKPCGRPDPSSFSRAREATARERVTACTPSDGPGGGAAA

Mu-type opioid receptor = Mu-type opioid receptor (Homo sapiens, UniProt P35372); assay: Counterscreen for agonists of heterodimerization of the mu 1 (OPRM1) and delta 1 (OPRD1) opioid receptors: Luminescence-based cell-based high throughput dose response assay to identify agonists of OPRM1 homodimerization.; assay type: functional;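 note: U2OS cells expressing OPRM1 and beta-arrestin as split beta-galactosidase partners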
Mu-type opioid receptor, sequence (P35372 whole entry): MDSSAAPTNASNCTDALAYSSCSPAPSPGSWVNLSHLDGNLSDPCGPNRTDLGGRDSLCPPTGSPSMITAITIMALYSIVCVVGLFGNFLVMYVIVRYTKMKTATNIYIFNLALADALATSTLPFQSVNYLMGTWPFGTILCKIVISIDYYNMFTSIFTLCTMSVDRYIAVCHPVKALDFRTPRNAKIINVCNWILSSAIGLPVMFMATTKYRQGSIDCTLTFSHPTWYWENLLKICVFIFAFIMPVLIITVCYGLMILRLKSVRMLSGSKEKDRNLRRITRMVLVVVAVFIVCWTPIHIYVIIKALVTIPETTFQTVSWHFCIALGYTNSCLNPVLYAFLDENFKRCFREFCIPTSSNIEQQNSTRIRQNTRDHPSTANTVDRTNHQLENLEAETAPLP

[17] = biological target: 5-hydroxytryptamine receptor 5A (Homo sapiens, UniProt P47898); assay: Counterscreen for agonists of OPRM1-OPRD1 heterodimerization: luminescence-based cell-based high throughput dose response assay to identify agonists of 5-hydroxytryptamine (serotonin) 5A receptor (HTR5A). [Related pubchem assays (depositor defined):AID504326, AID504355, AID504692, AID504904, AID504905]; assay type: functional
5-hydroxytryptamine receptor 5A, sequence (P47898 whole entry): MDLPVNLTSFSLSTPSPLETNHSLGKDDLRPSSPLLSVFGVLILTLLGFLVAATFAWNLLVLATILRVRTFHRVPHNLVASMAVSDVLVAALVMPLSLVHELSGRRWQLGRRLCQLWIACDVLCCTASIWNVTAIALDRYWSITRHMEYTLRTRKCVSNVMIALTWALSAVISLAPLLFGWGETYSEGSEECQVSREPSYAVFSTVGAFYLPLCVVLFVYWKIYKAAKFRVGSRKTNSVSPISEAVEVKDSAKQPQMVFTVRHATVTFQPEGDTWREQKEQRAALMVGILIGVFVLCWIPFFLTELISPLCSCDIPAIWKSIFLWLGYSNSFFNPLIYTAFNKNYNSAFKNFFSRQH

[18] = inhibitors of intracellular T. cruzi replication, confirmation, NIH3T3 host cells, beta-gal luminescence (AID 2044); assay type: functional, cell-based;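 note: intracellular parasites grown in NIH/3T3 mouse fibroblasts as host cells; luminescent beta-galactosidase reporter signal from transgenic T. cruzi replicating inside host cells; inhibitors lower the luminescence signal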
[19] = cytotoxicity toward NIH3T3 fibroblasts, dose response, counter-screen, cell-based, ATP luminescence, mouse fibroblasts (AID 2010); assay type: functional;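 note: cells exposed to compound for about 90 hours before reading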
Jurkat = assay: antigen receptor-induced NF-kB inhibitors, dose response, Jurkat, luciferase reporter, luminescence, B- and T-cell (AID 489004); assay type: functional, cell-based; details: Homo sapiens;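 note: NF-kB luciferase reporter Jurkat cells stimulated with PMA plus ionomycin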
[20] = cytotoxicity in HEK-293T NF-kB-Luc cells, dose response, cytotoxicity control for B/T-cell NF-kB inhibitor project, cell-based, uHTS hits (AID 489019); assay type: functional;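 note: IC50 reflects cytotoxicity as loss of cell viability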
INS1 = assay: beta cell apoptosis inhibitors, cytokine rescue, dose response, luminescence, retest (AID 449756); assay type: functional, cell-based; details: Rattus norvegicus;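 note: cell death triggered by IL-1 beta plus TNF-alpha plus IFN-gamma mixture; protective hits raise ATP signal compared with cytokine alone wells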
[21] = biological target: Voltage-dependent T-type calcium channel subunit alpha-1H (Homo sapiens, UniProt O95180); assay: Cav3.2 T-type channel blockers, cell-based, SynthLib3 library, HEK293 Cav3.2, fluorescence (AID 493041); assay type: functional
[22] = inhibitors of Trypanosoma cruzi host-cell infection, confirmation, beta-gal luminescence, NIH3T3 host cells (AID 2630); assay type: functional, cell-based; details: Mus musculus
[23] = biological target: T4, Microphthalmia-associated transcription factor (Homo sapiens, UniProt O75030); assay: TRPM1 promoter luciferase signal decrease, dose response, MITF inhibitor project, cell-based, SK-MEL-5, cherry-picked, set 3 (AID 493073); assay type: functional
T4 sequence (O75030 whole entry): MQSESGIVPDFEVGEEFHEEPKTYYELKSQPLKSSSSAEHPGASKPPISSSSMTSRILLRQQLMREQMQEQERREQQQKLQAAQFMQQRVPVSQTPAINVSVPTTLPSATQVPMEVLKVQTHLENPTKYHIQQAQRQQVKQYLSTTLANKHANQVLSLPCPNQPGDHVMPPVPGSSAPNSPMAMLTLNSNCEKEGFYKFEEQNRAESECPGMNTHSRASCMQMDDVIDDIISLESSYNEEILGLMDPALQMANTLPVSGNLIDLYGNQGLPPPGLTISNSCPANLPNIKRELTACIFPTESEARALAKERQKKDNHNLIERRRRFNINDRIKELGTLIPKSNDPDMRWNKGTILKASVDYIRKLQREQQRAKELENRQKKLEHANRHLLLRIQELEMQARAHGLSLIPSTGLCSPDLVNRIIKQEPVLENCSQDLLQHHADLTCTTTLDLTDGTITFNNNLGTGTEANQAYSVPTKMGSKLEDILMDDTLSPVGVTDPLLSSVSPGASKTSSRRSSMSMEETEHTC

A-375 [24] = assay: MITF: Counter assay: A375 proliferation Measured in Cell-Based System Using Plate Reader - 2084-03_Inhibitor_Dose_DryPowder_Activity. [Related pubchem assays (depositor defined):AID488944]; assay type: functional; details: Homo sapiens
A-375 [25] = assay: A375 melanoma cell viability reduction, dose response, counter-screen for MITF modulator project, cherry-pick samples, set 2 (AID 540335); assay type: functional, cell-based; details: Homo sapiens

Voltage-gated inwardly rectifying potassium channel KCNH2, sequence (Q12809 whole entry): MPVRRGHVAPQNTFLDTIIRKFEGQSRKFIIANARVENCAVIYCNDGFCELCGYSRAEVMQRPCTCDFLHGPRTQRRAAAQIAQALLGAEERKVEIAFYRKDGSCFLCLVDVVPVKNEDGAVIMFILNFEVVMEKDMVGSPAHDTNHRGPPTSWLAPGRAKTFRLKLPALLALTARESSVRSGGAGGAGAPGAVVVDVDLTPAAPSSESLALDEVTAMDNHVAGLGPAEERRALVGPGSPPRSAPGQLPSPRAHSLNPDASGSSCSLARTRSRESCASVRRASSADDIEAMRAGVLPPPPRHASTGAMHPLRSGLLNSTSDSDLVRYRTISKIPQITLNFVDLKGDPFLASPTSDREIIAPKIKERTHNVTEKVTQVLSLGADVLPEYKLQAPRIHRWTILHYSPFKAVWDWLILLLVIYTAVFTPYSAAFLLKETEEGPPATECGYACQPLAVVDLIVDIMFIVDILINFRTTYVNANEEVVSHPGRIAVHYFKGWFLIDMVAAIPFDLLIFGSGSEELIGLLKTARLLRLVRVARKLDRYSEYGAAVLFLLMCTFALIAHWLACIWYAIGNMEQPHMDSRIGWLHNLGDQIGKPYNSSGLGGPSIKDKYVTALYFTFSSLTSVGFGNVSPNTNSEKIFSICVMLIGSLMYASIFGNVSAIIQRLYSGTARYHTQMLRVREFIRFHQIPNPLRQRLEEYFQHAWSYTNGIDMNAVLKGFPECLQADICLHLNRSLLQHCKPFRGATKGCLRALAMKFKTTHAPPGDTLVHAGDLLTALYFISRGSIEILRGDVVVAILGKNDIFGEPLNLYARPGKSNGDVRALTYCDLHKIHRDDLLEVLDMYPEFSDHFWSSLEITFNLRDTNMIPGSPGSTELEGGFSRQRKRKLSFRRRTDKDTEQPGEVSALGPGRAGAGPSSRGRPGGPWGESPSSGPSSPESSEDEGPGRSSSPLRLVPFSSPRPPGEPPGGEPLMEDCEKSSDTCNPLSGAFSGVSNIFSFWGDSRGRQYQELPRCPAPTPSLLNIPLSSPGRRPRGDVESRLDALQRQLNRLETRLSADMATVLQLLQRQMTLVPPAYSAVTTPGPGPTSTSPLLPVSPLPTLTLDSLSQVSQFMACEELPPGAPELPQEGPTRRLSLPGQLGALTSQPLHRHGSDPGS

Q: Which AC50 [1] does the source give for `N[C@@H](Cc1ccc(F)cc1)C(=O)O` here?
A: 35.5 µM (inconclusive)

Q: With `Cc1cccc(C(=O)NNC(=S)NC(=O)c2cccs2)c1` as the compound, how does the EC50 [2] read?
A: > 160 µM (inactive)

Q: What about the EC50 [3] of the same compound?
A: 2.47 µM (active)

Q: What about the EC50 [4] of the same compound?
A: 5.96 µM (active)

Q: What about the IC50 (Vero [5]) of the same compound?
A: 23.5 µM (active)

Q: What about the CC50 (Vero [6]) of the same compound?
A: > 25 µM (active)

Q: Which results are given for `COc1ccc2nc(Nc3nc(C)c(CCC(C)C)c(O)n3)nc(C)c2c1`?
A: IC50 [7]: 1.95 µM (active); IC50 [8]: 5.61 µM (active)

Q: With `COc1ccccc1OC[C@H](O)CN1CCN(CC(=O)Nc2c(C)cccc2C)CC1` as the compound, how does the AC50 (Cytochrome P450 1A2 [9]) read?
A: inactive

Q: For `CC(NC(=O)c1ccc(N2CCCC2=O)cc1)c1ccccc1` (stereo unspecified), which AC50 (Cytochrome P450 1A2 [10]) is on record?
A: 39.8 µM (inconclusive)

Q: What about the AC50 (Cytochrome P450 2C9) of the same compound?
A: 15.8 µM (inconclusive)

Q: What about the AC50 (Cytochrome P450 3A4) of the same compound?
A: inconclusive

Q: With `Cc1ccc(OCCN2C(=O)C(=O)c3cc(C)ccc32)cc1` as the compound, how does the AC50 [11] read?
A: 24.2 µM (active)

Q: And the AC50 (CAAX prenyl protease 2 [12])?
A: 1.6 µM (active)

Q: What about the AC50 [13] of the same compound?
A: 145 µM (active)

Q: And the AC50 [14]?
A: 4.64 µM (active)

Q: And the AC50 (CAAX prenyl protease 2 [15])?
A: 12.8 µM (active)

Q: What does the source list for `CN1C(CC(=O)Nc2ccc(Br)cc2)c2ccccc2CC1(C)C` (stereo unspecified)?
A: EC50 [4]: 2.11 µM (active); EC50 [16]: 86.4 µM (inactive); EC50 (Mu-type opioid receptor): > 92.5 µM (inactive); EC50 [17]: > 92.5 µM (inactive)

Q: Which results are given for `N=c1c2c(n(Cc3ccc(Br)cc3)c3c1CCC3)CCCC2`?
A: EC50 [18]: 0.26 µM (active); EC50 [19]: > 60 µM (inconclusive); IC50 (Jurkat): 24.6 µM (inactive); IC50 [20]: > 80 µM (inactive); AC50 (INS1): 2.64 µM (active)

Q: Which EC50 [21] does the source give for `CC(C)CN1C[C@@H]2C(CNC(=O)c3cc(Cl)cc(Cl)c3)[C@@H]2C1` (stereo partly specified) here?
A: 10 µM (active)

Q: Which EC50 [22] does the source give for `COc1ccc(C(=O)C2CCCN(CCc3ccccc3)C2)cc1OC` (stereo unspecified) here?
A: 0.0558 µM (active)

Q: With `Cc1ccc([N+](=O)[O-])cc1N1C(=O)CS/C1=N\NC(=O)c1cccnc1` as the compound, how does the AC50 [23] read?
A: 48.7 µM (active)

Q: What about the AC50 (A-375 [24]) of the same compound?
A: > 35 µM (active)

Q: And the AC50 (A-375 [25])?
A: > 35 µM (active)
